For data set [1] the following is noted: human, in vivo.
A short description of data set [2]: clinical. The settings on record: human, in vivo.

Marks after values point to notes of the source that are not given here.

The term AUC(0-inf) denotes the area under the concentration-time curve extrapolated to infinity. Lower therefore signals less exposure. As usually defined, the AUC(0-t) is the area under the concentration-time curve up to a stated or last time point. Higher therefore signals high exposure. Usually Cmax stands for the peak of the concentration-time curve. As usually defined, the Tmax is the time at which the peak concentration occurs. In the case of `C=CCN1CC[C@]23c4c5ccc(O)c4O[C@H]2C(=O)CC[C@@]3(O)[C@H]1C5` [naloxone], in data set [1], the plasma concentration amounted to 0.068 ng/mL, the “t1/2 (apparent terminal half-life)” value is reported as 2.21 (61.1)^f h and the “time for which analyte was quantifiable in plasma” value amounted to 36 h. In data set [2], the AUC(0-inf) is 0.0772 ng·h/mL, the AUC(0-t) amounted to 0.0681 ng·h/mL, the peak level (Cmax) was 0.0266 ng/mL and the Tmax was found to be 45 min.

Values taken from patent US20180313858A1, “QUANTIFICATION OF DRUGS IN BIOLOGICAL SAMPLES” (Indivior UK Limited, priority 2015, published 2018).
